Article PMC9775433 (Cancers, 2022)
Several values for one entry are separate records, joined by “and”; a condition that tells them apart may be missing. Equal entries are not always repeated. Where two headings read alike, the source gives them in different places.

Assays:
[1] = Skin drug concentration in skin biopsy at day 17 (LC-MS-MS); type: in vivo, human; conditions: individual patient; for concentration at 17 day: human, skin, oral, Skin - Sunitinib concentration
Method: All tissue samples were immediately snap frozen (within 1 min) in liquid nitrogen and cryopreserved at −80 °C until the day of analysis.
Tissue biopsies were weighed accurately before analysis. Tissue homogenate was prepared by using a mechanical homogenizer. The tumor tissue was homogenized with the precellys lysing kit (bertin instruments®) in the Roche MagNA lyzer®. […] Tissue homogenate samples were directly analyzed.
(§1) Supplementary data S2 – Methods (Details)
(§2) samples; using a validated liquid chromatography–tandem mass spectrometry (LC-MS-MS).
(§3) The system consisted of an Acquity H‐Class UPLC system, coupled to a Xevo TQ‐S micro
(§4) tandem mass spectrometer. […]

[2] = Plasma pharmacokinetics of high-dose intermittent sunitinib (LC-MS-MS, NONMEM); type: in vivo, human; conditions: human, plasma, oral, Cmax plasma - Sunitinib concentration, individual patient
Method: Study pharmacokinetic assessment in plasma: Ethylenediaminetetraacetic acid (EDTA) blood was collected pretreatment and subsequently at multiple time points in all patients (0, 2, 4, 6, 8, 10, and 24 h post-dose on day 1 for both time schedules and thereafter at days 3, 8, 10, 15, 17, and 22 for the once weekly schedule and at days 3, 15, 17, and 29 for the once every 2 weeks schedule). All samples were centrifuged within 1 h after collection at 2000 g for 10 min (at 4 degrees Celsius (°C)), plasma was separated and stored at −80 °C until the day of analysis.
Since there is no evidence for the exact relationship between plasma and tumor concentrations, we chose to use the concentration–time data calculated by NONMEM for Cmax, the average concentration over time (Caverage) and the trough concentrations just before the next dose was administered (Ctrough) based on rich PK-data of each individual patient. […] Inter-occasion variability in bioavailability and absorption duration were allowed in the model. The control stream of the final model and the goodness-of-fit plots are supplied in the Supplementary Material (Supplementary Data S3). The developed model was used to derive the individual predictions for the Cmax, Caverage, and Ctrough. SUM concentrations were calculated.
as §1, §2, §3, §4

[3] = tested on: refractory solid tumors; assay: Phase I trial outcome (PFS, OS); type: in vivo, human; conditions: individual patient
Method: All patients provided written informed consent before entering the study. The study was conducted in accordance with the Declaration of Helsinki and with the principles of the International Conference on Harmonization Guidelines for Good Clinical Practice. The study protocol was approved by the local institutional board and an independent Ethics Committee.
Patients continued treatment until progression, intolerance, or withdrawal of consent. The primary outcomes of the phase I clinical trial were described previously.
Efficacy was assessed in patients who completed at least two weeks of treatment. […] Statistical significance was set at p < 0.05. All statistical analyses were performed in SPSS, version 25.

[4] = tested on: CD31; assay: Immunohistochemistry of tumor biopsies, CD31 (microvessel density); type: in vivo, human; conditions: 10 paired tumor biopsies, day 17
Method: Immunohistochemistry: Immunohistochemical staining was performed on 3–5 μm thick sections of the (freeze) tumor biopsies for CD3, CD31 and Ki67 according to standard methods (see Supplementary Data S2). Morphological characteristics were assessed in hematoxylin-eosin (H&E)-stained tissue sections. Evaluation of staining was performed by four investigators using light microscopy of serial tissue sections. […] Semi-quantification of CD31 staining was scored manually by a pathologist. The number of cells positive for CD3, CD31 was expressed as an estimated proportion of the total number of cells. […]
Finally, staining was
visualized with 3,3-diamino-benzidine-tetra hydrochloride (DAB), 0.3 mg/ml in 1 ml PBS
with 0.3 % H2O2. All slides were counterstained with hematoxylin.

[5] = Food effect cohort; type: in vivo, human; conditions: 700 mg Q2W, fed versus fasted
[6] = tested on: refractory solid tumors; design: method as in PMID 30586316; conditions: cited from earlier work
[7] = mice; cited from earlier work
[8] = cited from earlier work
[9] = tested on: TNIK; design: method as in earlier work; conditions: cited from earlier work
[10] = tested on: MAP4K4; design: method as in earlier work; conditions: cited from earlier work
[11] = tested on: CLK1; design: method as in earlier work; conditions: cited from earlier work
[12] = tested on: RASSF3; design: method as in earlier work; conditions: cited from earlier work
[13] = tested on: FGFR-1; design: method as in earlier work; conditions: cited from earlier work
[14] = tested on: AAK1; design: method as in earlier work; conditions: cited from earlier work
[15] = tested on: TEX264; design: method as in earlier work; conditions: cited from earlier work
[16] = tested on: PHKG2; design: method as in earlier work; conditions: cited from earlier work
[17] = tested on: RASSF5; design: method as in earlier work; conditions: cited from earlier work
[18] = tested on: LATS1; design: method as in earlier work; conditions: cited from earlier work
[19] = tested on: CSNK1D; design: method as in earlier work; conditions: cited from earlier work
[20] = in vivo; cited from earlier work
[21] = standard daily schedule, three patients

CCN(CC)CCNC(=O)c1c(C)[nH]c(/C=C2\C(=O)Nc3ccc(F)cc32)c1C [sunitinib]
Skin - Sunitinib concentration ([1]; 300 mg O1W): 7444 µg/L and 1839 µg/L and 611 µg/L and 3502 µg/L and 629 µg/L and 305 µg/L and 1571 µg/L and 1582 µg/L and 2451 µg/L and 1993 µg/L and 5819 µg/L and 4222 µg/L and 1881 µg/L
Skin - Sunitinib concentration ([1]; 300 mg O2W): 197 µg/L and 399 µg/L
Skin - Sunitinib concentration ([1]; 700 mg O2W): 6449 µg/L and 157 µg/L and 494 µg/L and 2120 µg/L and 13415 µg/L and 375 µg/L and 1238 µg/L and 1247 µg/L and 792 µg/L and 614 µg/L and 455 µg/L and 393 µg/L and 276 µg/L and 13960 µg/L and 3537 µg/L and 896 µg/L and 2370 µg/L and 4779 µg/L and 1278 µg/L
concentration at 17 day ([1]; 400 mg, 400 mg O1W): 1500 ng/mL
concentration at 17 day ([1]; 800 mg, 800 mg O2W): 520 ng/mL
Cmax ([2]; 200 mg, 200 mg O1W): 239 ng/mL
Cmax ([2]; 600 mg, 600 mg O2W): 190 ng/mL
OS ([3]; 200 mg O1W): 119 days and 134 days
PFS ([3]; 200 mg O1W): 77 days and 82 days
OS ([3]; 300 mg O2W): 78 days and 76 days
PFS ([3]; 300 mg O2W): 58 days and 61 days
OS ([3]; 400 mg O1W): 26 days and 261 days and 817 days and 151 days and 132 days and 237 days and 169 days
PFS ([3]; 400 mg O1W): 23 days and 239 days and 68 days and 51 days and 160 days
OS ([3]; 400 mg O2W): 185 days and 23 days and 194 days
PFS ([3]; 400 mg O2W): 57 days
OS ([3]; 500 mg O2W): 257 days and 427 days
PFS ([3]; 500 mg O2W): 57 days and 176 days and 54 days
OS ([3]; 600 mg O2W): 353 days and 342 days
PFS ([3]; 600 mg O2W): 56 days and 331 days and 93 days
OS ([3]; 700 mg O2W): 86 days and 150 days and 428 days and 170 days and 91 days and 57 days and 142 days and 40 days and 526 days and 232 days and 125 days and 486 days and 400 days and 169 days and 74 days and 419 days and 148 days and 184 days and 333 days and 596 days and 93 days
PFS ([3]; 700 mg O2W): 56 days and 77 days and 245 days and 170 days and 14 days and 57 days and 26 days and 168 days and 64 days and 60 days and 45 days and 334 days and 197 days and 318 days and 84 days
OS ([3]; 800 mg O2W): 89 days and 32 days and 45 days and 243 days and 63 days and 62 days
PFS ([3]; 800 mg O2W): 56 days and 194 days and 42 days
microvessel density (MVD), pre- versus on treatment biopsies [4]: no significant differences
effect of food on oral uptake [5]: did not affect
OS range ([6]; 300 mg Q1W): 1.2–15 months
PFS range ([6]; 300 mg Q1W): 0.7–11 months
median OS ([6]; 300 mg Q1W): 3.1 months
median PFS ([6]; 300 mg Q1W): 2.2 months
OS range ([6]; 700 mg Q2W): 1.3−19.6 months
PFS range ([6]; 700 mg Q2W): 0.5–11 months
median OS ([6]; 700 mg Q2W): 4.9 months
median PFS ([6]; 700 mg Q2W): 2.6 months
OS range ([6]; all patients): 0.8–27 months
PFS range ([6]; all patients): 0.5–11 months
median overall survival (OS) ([6]; all patients): 4.9 months
median progression free survival (PFS) ([6]; all patients): 2.5 months
IC50 [12]: 800 nM
IC50 [15]: 990 nM
IC50 [17]: 1130 nM
apparent volume of distribution [20]: 2230 L
